Structures can show the parent of a compound that is named as a salt.
Key:
SYK = SYK (Homo sapiens, UniProt P43405); assay: Inhibition of enzymatic kinase activity (LANCE Ulight); type: biochemical; design: Purified full-length human SYK, ZAP70, PIM1, PYK2; purchased Carna Biosciences; settings: at 1 μM concentration; read-out: SYK percentage inhibition
Procedure: (§1) Inhibition of Enzymatic SYK, ZAP70, PYK2, FAK, PIM1, RET, FLT3, JAK2 and LRRK2 Kinase Activity
(§2) Compounds of the invention were initially diluted to 10 mM in 100% DMSO (CALBIOCHEM™) for storage and made into kinase buffer solution to create a compound concentration ranging from 1 uM and 10 uM. Serial dilutions of compounds of the invention were dispensed into a 96-well plate (GREINER BIOSCIENCES™) at 6 μL each. Purified full-length human SYK, ZAP70, PIM1, PYK2 and truncated human FAK, RET, FLT3, JAK2, and LRRK2 (CARNA BIOSCIENCES™) were diluted in kinase buffer and added to the compound solutions and pre-incubated for 30 minutes at room temperature (1 hour for PYK2). […] The reaction mixture was incubated for 1 hour (2 hours for PYK2). Following the incubation, the stop solution made with EDTA, water, and Lance detection buffer ([…]™) was added (12 μL each) to stop phosphorylation.

PYK2 = PYK2 (Homo sapiens, UniProt Q14289); assay: as above; type: biochemical; design: Purified full-length human SYK, ZAP70, PIM1, PYK2; purchased Carna Biosciences; settings: at 1 μM concentration; read-out: PYK2 percentage inhibition
PYK2, sequence (Q14289 whole entry): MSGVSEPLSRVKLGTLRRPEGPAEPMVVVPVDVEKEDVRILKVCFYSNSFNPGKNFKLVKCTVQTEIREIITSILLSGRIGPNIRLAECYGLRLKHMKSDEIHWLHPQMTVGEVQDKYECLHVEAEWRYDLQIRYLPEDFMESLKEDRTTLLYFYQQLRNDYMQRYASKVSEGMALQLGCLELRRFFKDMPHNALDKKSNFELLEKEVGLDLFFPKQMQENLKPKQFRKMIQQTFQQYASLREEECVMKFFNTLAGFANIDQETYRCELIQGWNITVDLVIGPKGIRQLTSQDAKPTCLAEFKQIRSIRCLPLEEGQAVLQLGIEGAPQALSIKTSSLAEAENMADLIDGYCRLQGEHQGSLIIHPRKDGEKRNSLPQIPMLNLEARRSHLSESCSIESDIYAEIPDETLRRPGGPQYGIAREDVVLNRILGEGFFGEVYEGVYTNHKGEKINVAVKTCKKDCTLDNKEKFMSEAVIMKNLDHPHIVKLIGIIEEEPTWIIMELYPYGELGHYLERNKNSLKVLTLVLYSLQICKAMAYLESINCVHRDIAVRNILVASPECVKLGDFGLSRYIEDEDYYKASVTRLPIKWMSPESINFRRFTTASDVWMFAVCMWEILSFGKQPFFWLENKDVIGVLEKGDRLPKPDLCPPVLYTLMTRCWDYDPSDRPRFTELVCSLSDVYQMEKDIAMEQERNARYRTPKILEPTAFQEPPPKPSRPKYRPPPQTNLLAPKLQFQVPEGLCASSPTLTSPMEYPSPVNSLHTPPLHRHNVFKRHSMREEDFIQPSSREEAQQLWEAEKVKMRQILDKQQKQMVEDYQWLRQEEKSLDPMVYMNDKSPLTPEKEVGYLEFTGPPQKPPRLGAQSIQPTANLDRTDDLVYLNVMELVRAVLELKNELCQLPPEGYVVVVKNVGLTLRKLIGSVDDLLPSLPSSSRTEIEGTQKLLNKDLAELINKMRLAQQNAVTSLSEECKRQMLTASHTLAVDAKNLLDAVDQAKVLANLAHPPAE
Procedure: as §1, §2

human ZAP70 = target: T1, human ZAP70 (Homo sapiens, UniProt P43403); assay: as above; type: biochemical; settings: at 1 μM concentration; read-out: ZAP70 percentage inhibition
T1 construct: Purified full-length human SYK, ZAP70, PIM1, PYK2; purchased Carna Biosciences
T1 sequence (P43403 1-619): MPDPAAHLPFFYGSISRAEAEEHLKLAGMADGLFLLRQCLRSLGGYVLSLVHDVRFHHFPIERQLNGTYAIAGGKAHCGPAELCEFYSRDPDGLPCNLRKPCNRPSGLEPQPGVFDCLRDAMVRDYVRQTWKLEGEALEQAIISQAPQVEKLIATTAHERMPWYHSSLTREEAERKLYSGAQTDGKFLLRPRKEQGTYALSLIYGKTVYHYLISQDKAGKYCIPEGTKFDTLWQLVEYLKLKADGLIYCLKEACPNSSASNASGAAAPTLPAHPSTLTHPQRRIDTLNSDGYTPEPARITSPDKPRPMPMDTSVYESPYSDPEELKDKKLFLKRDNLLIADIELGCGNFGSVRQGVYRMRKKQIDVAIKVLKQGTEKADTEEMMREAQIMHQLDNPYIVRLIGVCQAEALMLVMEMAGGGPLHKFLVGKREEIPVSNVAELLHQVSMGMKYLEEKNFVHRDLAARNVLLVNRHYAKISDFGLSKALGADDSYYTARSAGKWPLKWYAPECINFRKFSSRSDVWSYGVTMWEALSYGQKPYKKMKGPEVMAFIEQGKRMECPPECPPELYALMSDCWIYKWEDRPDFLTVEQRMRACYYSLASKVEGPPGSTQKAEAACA
Procedure: as §1, §2

truncated human FAK = target: T2, truncated human FAK (Homo sapiens, UniProt Q05397); assay: as above; type: biochemical; settings: at 1 μM concentration; read-out: FAK percentage inhibition
T2 construct: truncated human FAK, RET, FLT3, JAK2, and LRRK2 (CARNA BIOSCIENCES™); purchased Carna Biosciences
T2 sequence (Q05397 376-1052 limits assumed): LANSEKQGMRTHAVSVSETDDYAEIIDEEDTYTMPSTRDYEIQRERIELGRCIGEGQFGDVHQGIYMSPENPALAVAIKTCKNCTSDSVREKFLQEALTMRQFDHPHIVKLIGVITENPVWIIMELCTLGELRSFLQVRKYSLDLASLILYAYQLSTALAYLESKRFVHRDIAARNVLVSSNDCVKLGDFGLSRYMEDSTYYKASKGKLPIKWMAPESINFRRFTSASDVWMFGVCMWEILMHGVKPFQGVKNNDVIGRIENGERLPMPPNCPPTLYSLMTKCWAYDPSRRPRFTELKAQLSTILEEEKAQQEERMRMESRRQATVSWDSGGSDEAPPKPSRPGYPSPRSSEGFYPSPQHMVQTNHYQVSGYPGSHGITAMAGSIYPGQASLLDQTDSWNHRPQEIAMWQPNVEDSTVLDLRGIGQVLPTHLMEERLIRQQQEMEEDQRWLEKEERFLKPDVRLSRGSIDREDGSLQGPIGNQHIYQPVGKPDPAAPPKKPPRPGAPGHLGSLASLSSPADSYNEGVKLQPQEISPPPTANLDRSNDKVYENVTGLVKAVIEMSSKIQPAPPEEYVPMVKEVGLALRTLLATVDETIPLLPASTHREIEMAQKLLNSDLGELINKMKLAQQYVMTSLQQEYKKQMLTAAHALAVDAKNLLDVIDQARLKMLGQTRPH
Procedure: as §1, §2

human PIM1 = target: T3, human PIM1 (Homo sapiens, UniProt P11309); assay: as above; type: biochemical; settings: at 1 μM concentration; read-out: PIM1 percentage inhibition
T3 construct: Purified full-length human SYK, ZAP70, PIM1, PYK2; purchased Carna Biosciences
T3 sequence (P11309 whole entry): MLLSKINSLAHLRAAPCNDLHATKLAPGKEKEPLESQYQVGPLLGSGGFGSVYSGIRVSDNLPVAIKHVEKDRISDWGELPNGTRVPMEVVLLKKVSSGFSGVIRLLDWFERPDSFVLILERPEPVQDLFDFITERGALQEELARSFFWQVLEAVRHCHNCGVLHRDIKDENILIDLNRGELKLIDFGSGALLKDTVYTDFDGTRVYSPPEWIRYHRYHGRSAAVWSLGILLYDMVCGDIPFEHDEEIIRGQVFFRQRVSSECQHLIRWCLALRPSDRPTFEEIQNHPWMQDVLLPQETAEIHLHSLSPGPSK
Procedure: as §1
as §2, with “phosphorylation. […] Substrate phosphorylation was a function of the 665 nm emission measured following the addition of the detection solution and 50 minutes of incubation.” for “phosphorylation.”

[1] = tested on: MV4-11 cells expressing human FLT3-ITD; assay: Cell viability assay: FLT3-ITD-positive cells; type: cell-based; settings: for inhibition level compared with Vandetinib and Sunitinib: FLT3 ITD induced cancer cell line; for IC50: Homo sapiens, 72-hour incubation, read-out: MV-4-11 cell viability IC50
Procedure: Compounds of the invention were tested for cell viability effect on MV4-11 cells. For cell viability assay, MV4-11 cells expressing human FLT3-ITD were obtained from the American Type Culture Collection (ATCC, Manassas, Va.). This cell line was maintained with an Roswell Park Memorial Institute (RPMI) medium (HyClone™) containing 10 bovine calf serum (BCS; Hyclone™) supplemented iron. […] CellTiter Aqueous assay (Promega™) was also performed in parallel as an orthogonal assay. IC50 values were calculated using nonlinear regression and defined as the concentration needed for a 50 reduction in luminescence or absorbance treated versus untreated control cells (Prism™ Software).

truncated human JAK2 = target: T4, truncated human JAK2 (Homo sapiens, UniProt O60674); assay: Inhibition of enzymatic kinase activity (LANCE Ulight); type: biochemical
T4 construct: truncated human FAK, RET, FLT3, JAK2, and LRRK2 (CARNA BIOSCIENCES™); purchased Carna Biosciences
T4 sequence (O60674 826-1132 limits assumed): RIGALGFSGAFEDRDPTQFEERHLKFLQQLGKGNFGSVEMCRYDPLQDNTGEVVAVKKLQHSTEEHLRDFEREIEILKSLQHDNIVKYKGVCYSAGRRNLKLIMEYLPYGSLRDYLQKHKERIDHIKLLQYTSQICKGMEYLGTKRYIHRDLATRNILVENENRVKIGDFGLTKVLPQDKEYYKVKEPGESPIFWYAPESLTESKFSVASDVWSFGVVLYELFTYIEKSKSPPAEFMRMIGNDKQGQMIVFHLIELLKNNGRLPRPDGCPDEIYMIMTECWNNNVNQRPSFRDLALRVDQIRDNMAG
Procedure: as §1, §2

truncated human RET = target: T5, truncated human RET (Homo sapiens, UniProt P07949); assay: as above; type: biochemical
T5 construct: truncated human FAK, RET, FLT3, JAK2, and LRRK2 (CARNA BIOSCIENCES™); purchased Carna Biosciences
T5 sequence (P07949 658-1114 limits assumed): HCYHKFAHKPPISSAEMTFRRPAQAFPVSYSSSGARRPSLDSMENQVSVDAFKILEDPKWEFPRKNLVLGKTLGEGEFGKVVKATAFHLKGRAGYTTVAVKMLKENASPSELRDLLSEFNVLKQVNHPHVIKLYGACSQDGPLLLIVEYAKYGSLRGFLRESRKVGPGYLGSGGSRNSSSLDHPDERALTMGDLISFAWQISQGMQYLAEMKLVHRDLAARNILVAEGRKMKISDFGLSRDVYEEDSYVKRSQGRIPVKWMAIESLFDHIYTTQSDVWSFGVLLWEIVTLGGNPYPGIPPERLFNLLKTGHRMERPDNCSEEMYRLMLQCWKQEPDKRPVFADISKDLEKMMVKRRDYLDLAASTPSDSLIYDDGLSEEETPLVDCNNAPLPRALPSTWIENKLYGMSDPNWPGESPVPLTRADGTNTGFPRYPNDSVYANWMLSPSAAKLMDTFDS
Procedure: as §1, §2

truncated human FLT3 = target: T6, truncated human FLT3 (Homo sapiens, UniProt P36888); assay: as above; type: biochemical
T6 construct: truncated human FAK, RET, FLT3, JAK2, and LRRK2 (CARNA BIOSCIENCES™); purchased Carna Biosciences
T6 sequence (P36888 564-993 limits assumed): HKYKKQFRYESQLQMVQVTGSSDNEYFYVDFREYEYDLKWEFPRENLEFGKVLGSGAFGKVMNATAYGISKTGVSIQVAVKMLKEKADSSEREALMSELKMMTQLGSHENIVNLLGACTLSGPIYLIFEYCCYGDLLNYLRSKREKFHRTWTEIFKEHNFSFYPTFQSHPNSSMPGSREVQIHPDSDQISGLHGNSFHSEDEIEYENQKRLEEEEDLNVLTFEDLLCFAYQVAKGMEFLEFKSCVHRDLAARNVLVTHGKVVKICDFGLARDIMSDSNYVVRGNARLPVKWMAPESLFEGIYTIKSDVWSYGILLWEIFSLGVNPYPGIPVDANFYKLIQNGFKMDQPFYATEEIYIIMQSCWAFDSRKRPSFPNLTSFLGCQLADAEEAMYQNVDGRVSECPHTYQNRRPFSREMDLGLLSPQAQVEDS
Procedure: as §1, §2

MTC-TT = assay: Cell viability assay: RET inhibition; type: cell-based, human; settings: for IC50: Homo sapiens, 48 h, two days after drug treatment; for inhibition level compared with Vandetinib and Sunitinib: RET induced cancer cell line
Procedure: In order to address RET dependent cell viability, the medullary thyroid carcinoma cell line, MTC-TT representing MEN2A was utilized to test compounds of the invention. MTC-TT were cultured at RPMI containing 15 bovine calf serum (Hyclon™ of Thermo™) and supplemented with 2 mM L-Glutamine. The cells were grown at a density of 5×10^4 cells/100 μL/well in duplicate in 96-well plates for one day and treated with different concentrations of test compound. Cell viability for MTC-TT two days after drug treatment was measured by Cell Titer 96 Aqueous One Solution Reagent (Promega™) according to the manufacture instructions. The IC50 value of test compound was calculated at Gradpad Prism 5 unless specified otherwise.

Compound | inhibition at 1 µM (SYK) | inhibition at 1 µM (PYK2) | inhibition at 1 µM (human ZAP70) | inhibition at 1 µM (truncated human FAK) | inhibition at 1 µM (human PIM1) | inhibition level compared with Vandetinib and Sunitinib [1] | IC50 ([1]; MV4-11) | times higher inhibition in IC50 than Sunitinib and PKC-412 ([1]; MV4-11) | IC50 (truncated human JAK2) | IC50 (truncated human RET) | IC50 (truncated human FLT3) | IC50 (MTC-TT) | times higher inhibition in IC50 than Vandetanib and Sunitinib (MTC-TT; MTC-TT) | inhibition level compared with Vandetinib and Sunitinib (MTC-TT)
Cn1ccc2nc(N3CCC(O)CC3)nc(Nc3cccc(C(F)(F)F)c3)c2c1=O [Compound 168, 2-(4-hydroxypiperidine-1-yl)-6-methyl-4-(3-(trifluoromethyl)phenylamino)pyrido[4,3-d]pyrimidin-5(6H)-one] | 3% | 1% | 6.2% | 4.9% | 7.3% |  |  |  |  |  |  |  |  | 
Cl.O=c1[nH]ccc2nc(N[C@H]3CCNC3)nc(Nc3ccc(C(F)(F)F)cc3)c12 [Compound 8, (S)-2-(pyrrolidin-3-ylamino)-4-(4-(trifluoromethyl)phenylamino)pyrido[4,3-d]pyrimidin-5(6H)-one hydrochloride] |  |  |  |  |  | inhibition level greater than those exhibited by Vandetinib and Sunitinib | 0.1 nM | 10-30 time | 12.7 nM | 2.6 nM | 0.2 nM | 14 nM | 6 time | inhibition level greater than those exhibited by Vandetinib and Sunitinib
NC1CCC(Nc2nc(Nc3cccc(C(F)(F)F)c3)c3c(=O)[nH]ccc3n2)CC1 [Compound 9, 2-((1R,4R)-4-aminocyclohexylamino)-4-(3-(trifluoromethyl)phenylamino)pyrido[4,3-d]pyrimidin-5(6H)-one] | 84% | 89% | 32% | 83% | 64% |  |  |  |  |  |  |  |  | 
CCN(CC)CCNC(=O)c1c(C)[nH]c(/C=C2\C(=O)Nc3ccc(F)cc32)c1C [Sunitinib, reference compound] |  |  |  |  |  |  | 3.8 nM |  |  |  |  | 117 nM |  | 
Cl.O=c1[nH]ccc2nc(N[C@H]3CCNC3)nc(Nc3ccc(N4CCOCC4)cc3)c12 [Compound 136, (S)-4-(4-morpholinophenylamino)-2-(pyrrolidin-3-ylamino)pyrido[4,3-d]pyrimidin-5(6H)-one hydrochloride] |  |  |  |  |  | inhibition level greater than those exhibited by Vandetinib and Sunitinib | 0.1 nM |  | 3.9 nM | 1.3 nM | 0.1 nM | 33 nM |  | inhibition level greater than those exhibited by Vandetinib and Sunitinib
NC1CCN(c2nc(Nc3cccc(Br)c3)c3c(=O)[nH]ccc3n2)CC1 [Compound 84, 2-(4-aminopiperidin-1-yl)-4-(3-bromophenylamino)pyrido[4,3-d]pyrimidin-5(6H)-one hydrochloride] | 95.7% | 92.8% | 54.6% | 92.9% | 71.2% |  |  |  |  |  |  |  |  | 
N[C@@H]1CCN(c2nc(Nc3cccc(C(F)(F)F)c3)c3c(=O)[nH]ccc3n2)C1 [Compound 7, (R)-2-(3-aminopyrrolidin-1-yl)-4-(3-(trifluoromethyl)phenylamino)pyrido[4,3-d]pyrimidin-5(6H)-one hydrochloride] | 92.6% | 84.9% | 42% | 83.5% | 51.4% |  |  |  |  |  |  |  |  | 
CS(=O)(=O)c1ccc(Nc2nc(N3CCC(O)CC3)nc3cc[nH]c(=O)c23)cc1 [Compound 126, 2-(4-hydroxypiperidin-1-yl)-4(4-(methylsulfonyl)phenylamino)pyrido[4,3d]pyrimidin-5(6H)-one] | 95.1% | 39.5% | 49.3% | 80.8% | 12.7% |  |  |  |  |  |  |  |  | 
